Assay results: patent US7449447B2, “Peptidomimetic NS3-serine protease inhibitors of hepatitis C virus” (priority 2003, dated 2008)
*1 amine or outer side, *2 acyl side, *3 side chain or, on linkers, in order; H or OH if unused. Where a SMILES comes first, the peptide text is derived from it. [ ]: non-standard residue; d: D form. The star is where a group is joined. Pro(3R,4S-CMe2) = CC1(C)[C@@H]2[C@@H](C(=O)O)NC[C@@H]21; Abu(4,4-F2) = N[C@@H](CC(F)F)C(=O)O; Phg = N[C@H](C(=O)O)c1ccccc1; Tle = CC(C)(C)[C@H](N)C(=O)O; CO = O=C([*:1])[*:2]; X2 = CC1(N*)CCCCC1

Molecular target: T1, HCV NS3/NS4a serine protease (Hepatitis C virus genotype 1b, UniProt P26663)
T1 construct: amino terminus of the NS3 protease domain (amino acids 3-181) with a tetrapeptide linker; made in house; host or cells: E. coli
T1 sequence (P26663 1013-1207, looked up, natural form): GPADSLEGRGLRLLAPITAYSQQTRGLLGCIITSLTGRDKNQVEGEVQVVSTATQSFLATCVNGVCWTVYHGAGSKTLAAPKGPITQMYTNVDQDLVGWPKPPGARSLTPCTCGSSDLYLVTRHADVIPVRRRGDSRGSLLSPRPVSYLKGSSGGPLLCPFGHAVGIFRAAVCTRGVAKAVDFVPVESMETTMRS
Assay: Spectrophotometric assay for HCV protease inhibitory activity (chromogenic ester substrates)
Assay type: biochemical, hepatitis C virus (strain 1b)
Conditions: single chain NS4A21-32-GSGS-NS3 3-181 protease, 30° C., pH 6.5
Outline: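 Single-chain NS4A(21-32)-GSGS-NS3(3-181) protease (genotype 1b) from E. coli was used at 1.3 nM in 25 mM MOPS pH 6.5 with 300 mM NaCl, 30 °C and 4% DMSO. Chromogenic ester substrate cleavage was followed as PAP release at 370 nm over 60 min. Ki was derived from vo/vi versus [I] plots assuming competitive inhibition.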

Row | SMILES | Ki (Ki, Table 3, rating) | Ki (Ki Rating, Table 2) | other results
1 | CCOc1ccc(CCNC(=O)[C@H](CC(F)F)NC(=O)[C@@H]2[C@@H]3[C@H](CN2C(=O)[C@@H](NC(=O)N[C@H](CN(C)S(C)(=O)=O)C(C)(C)C)C(C)(C)C)C3(C)C)cc1 [Example 274] | < 100 nM |  | 
2 | CN(C[C@@H](NC(=O)N[C@H](C(=O)N1C[C@H]2[C@@H]([C@H]1C(=O)N[C@@H](CC(F)F)C(=O)NCCCn1ccnc1)C2(C)C)C(C)(C)C)C(C)(C)C)S(C)(=O)=O [Example 239] | > 500 nM |  | 
3 | CN(C[C@@H](NC(=O)N[C@H](C(=O)N1C[C@H]2[C@@H]([C@H]1C(=O)N[C@@H](CC(F)F)C(=O)NCCCc1ccccc1)C2(C)C)C(C)(C)C)C(C)(C)C)S(C)(=O)=O [Example 220] | > 500 nM |  | 
4 | CN(C[C@@H](NC(=O)N[C@H](C(=O)N1C[C@H]2[C@@H]([C@H]1C(=O)N[C@@H](CC(F)F)C(=O)NCC(C)(C)C)C2(C)C)C(C)(C)C)C(C)(C)C)S(C)(=O)=O [Example 209] | > 500 nM |  | 
5 | COC(=O)c1ccc(CCNC(=O)[C@H](CC(F)F)NC(=O)[C@@H]2[C@@H]3[C@H](CN2C(=O)[C@@H](NC(=O)N[C@H](C(=O)OC(C)(C)C)C(C)C)C(C)(C)C)C3(C)C)cc1 [Example 133] |  | 100 to 500 nM | 
6 | CN(C[C@@H](NC(=O)N[C@H](C(=O)N1C[C@H]2[C@@H]([C@H]1C(=O)N[C@@H](CC(F)F)C(=O)NCCc1cccc(C(F)(F)F)c1)C2(C)C)C(C)(C)C)C(C)(C)C)S(C)(=O)=O [Example 282] | < 100 nM |  | 
7 | CC1(C)C[C@H]2[C@H](CN(C(=O)[C@@H](NC(=O)OCc3ccccc3)C3CCCCC3)[C@@H]2C(=O)N[C@@H](CC(F)F)C(=O)O)O1 [Example 161] |  | > 500 nM | 
8 | COc1cc(CCNC(=O)[C@H](CC(F)F)NC(=O)[C@@H]2[C@@H]3[C@H](CN2C(=O)[C@@H](NC(=O)N[C@H](CN(C)S(C)(=O)=O)C(C)(C)C)C(C)(C)C)C3(C)C)ccc1O [Example 294] | < 100 nM |  | 
9 | COC(=O)c1ccc(CCNC(=O)[C@H](CC(F)F)NC(=O)[C@@H]2[C@@H]3[C@H](CN2C(=O)[C@@H](NC(=O)N[C@H](C(=O)OCC2CC2)C(C)(C)C)C(C)(C)C)C3(C)C)cc1 [Example 143] |  | 100 to 500 nM | 
10 | CC1(C)CC(=O)N(C[C@@H](NC(=O)N[C@H](C(=O)N2C[C@H]3[C@@H]([C@H]2C(=O)N[C@@H](CC(F)F)C(=O)NCCc2c(F)cccc2F)C3(C)C)C(C)(C)C)C(C)(C)C)C(=O)C1 [Example 309] | < 100 nM |  | 
11 | COc1ccc(OC)c(CCNC(=O)[C@H](CC(F)F)NC(=O)[C@@H]2[C@@H]3[C@H](CN2C(=O)[C@@H](NC(=O)N[C@H](CN(C)S(C)(=O)=O)C(C)(C)C)C(C)(C)C)C3(C)C)c1 [Example 279] | 100 to 500 nM |  | 
12 | CC(CO)NC(=O)[C@H](CC(F)F)NC(=O)[C@@H]1[C@@H]2[C@H](CN1C(=O)[C@@H](NC(=O)N[C@H](CN(C)S(C)(=O)=O)C(C)(C)C)C(C)(C)C)C2(C)C (some centres unmarked) [Example 230] | > 500 nM |  | 
13 | CC(C)(C)OC(=O)[C@@H](NC(=O)N[C@H](C(=O)N1C[C@H]2[C@@H]([C@H]1C(=O)N[C@@H](CC(F)F)C(=O)NCCc1ccc(C(=O)O)cc1)C2(C)C)C(C)(C)C)C(C)(C)C [Example 127] |  | 100 to 500 nM | 
14 | CN(C[C@@H](NC(=O)N[C@H](C(=O)N1C[C@H]2[C@@H]([C@H]1C(=O)N[C@@H](CC(F)F)C(=O)NCC1CCCO1)C2(C)C)C(C)(C)C)C(C)(C)C)S(C)(=O)=O (some centres unmarked) [Example 210] | > 500 nM |  | 
15 | CC(C)[C@H](NC(=O)N[C@H](C(=O)N1C[C@@H]2OC(C)(C)C[C@@H]2[C@H]1C(=O)N[C@@H](CC(F)F)C(=O)NCCc1ccc(C(=O)O)cc1)C1CCCCC1)C(=O)OC(C)(C)C [Example 150] |  | > 500 nM | 
16 | CN(C[C@@H](NC(=O)N[C@H](C(=O)N1C[C@H]2[C@@H]([C@H]1C(=O)N[C@@H](CC(F)F)C(=O)NCC1CCCCC1)C2(C)C)C(C)(C)C)C(C)(C)C)S(C)(=O)=O [Example 213] | > 500 nM |  | 
17 | COc1ccccc1CNC(=O)[C@H](CC(F)F)NC(=O)[C@@H]1[C@@H]2[C@H](CN1C(=O)[C@@H](NC(=O)N[C@H](CN(C)S(C)(=O)=O)C(C)(C)C)C(C)(C)C)C2(C)C [Example 222] | > 500 nM |  | 
18 | CN(C[C@@H](NC(=O)N[C@H](C(=O)N1C[C@H]2[C@@H]([C@H]1C(=O)N[C@@H](CC(F)F)C(=O)N1CCc3ccccc3C1)C2(C)C)C(C)(C)C)C(C)(C)C)S(C)(=O)=O [Example 302] | > 500 nM |  | 
19 | CN(C[C@@H](NC(=O)N[C@H](C(=O)N1C[C@H]2[C@@H]([C@H]1C(=O)N[C@@H](CC(F)F)C(=O)NCCCN1CCOCC1)C2(C)C)C(C)(C)C)C(C)(C)C)S(C)(=O)=O [Example 242] | > 500 nM |  | 
20 | CN(C)CC(C)(C)CNC(=O)[C@H](CC(F)F)NC(=O)[C@@H]1[C@@H]2[C@H](CN1C(=O)[C@@H](NC(=O)N[C@H](CN(C)S(C)(=O)=O)C(C)(C)C)C(C)(C)C)C2(C)C [Example 241] | > 500 nM |  | 
21 | CN(C[C@@H](NC(=O)N[C@H](C(=O)N1C[C@H]2[C@@H]([C@H]1C(=O)N[C@@H](CC(F)F)C(=O)NC1CC1)C2(C)C)C(C)(C)C)C(C)(C)C)S(C)(=O)=O [Example 203] | > 500 nM |  | 

Row | SMILES | Ki (Ki, Table 3, rating) | Ki (Ki Rating, Table 2) | other results
22 | Cc1ccc(CCNC(=O)[C@H](CC(F)F)NC(=O)[C@@H]2[C@@H]3[C@H](CN2C(=O)[C@@H](NC(=O)N[C@H](CN(C)S(C)(=O)=O)C(C)(C)C)C(C)(C)C)C3(C)C)c(C)c1 [Example 266] | < 100 nM |  | 
23 | CN(C[C@@H](NC(=O)N[C@H](C(=O)N1C[C@H]2[C@@H]([C@H]1C(=O)N[C@@H](CC(F)F)C(=O)NCCc1ccc(O)cc1)C2(C)C)C(C)(C)C)C(C)(C)C)S(C)(=O)=O [Example 245] | < 100 nM |  | 
24 | COC(=O)[C@H](CC(F)F)NC(=O)[C@@H]1[C@H]2CC(C)(C)O[C@H]2CN1C(=O)[C@@H](NC(=O)OCc1ccccc1)C1CCCCC1 [Example 170] |  | > 500 nM | 
25 | CC(O)CNC(=O)[C@H](CC(F)F)NC(=O)[C@@H]1[C@@H]2[C@H](CN1C(=O)[C@@H](NC(=O)N[C@H](CN(C)S(C)(=O)=O)C(C)(C)C)C(C)(C)C)C2(C)C (some centres unmarked) [Example 231] | > 500 nM |  | 
26 | CN(C)C(=O)[C@@H](NC(=O)CNC(=O)[C@H](CC(F)F)NC(=O)[C@@H]1[C@@H]2[C@H](CN1C(=O)[C@@H](NC(=O)NC1(C)CCCCC1)C(C)(C)C)C2(C)C)c1ccccc1 [Example 172] ({X2-CO}-[Tle][Pro(3R,4S-CMe2)][Abu(4,4-F2)]G[Phg]-NMe2) |  | > 500 nM | 
27 | CC(C)(C)[C@H](NC(=O)N[C@H](CN1CCCS1(=O)=O)C(C)(C)C)C(=O)N1C[C@H]2[C@@H](C1C(=O)NC(CC(F)F)C(=O)NCCc1ccc(C(=O)O)cc1Cl)C2(C)C (some centres unmarked) [Example 102] |  |  | Ki (Ki, Table 1): 21 nM
28 | CC(C)(C)OC(=O)N[C@H](C(=O)N1C[C@H]2[C@@H]([C@H]1C(=O)N[C@@H](CC(F)F)C(=O)NCCC(=O)O)C2(C)C)C(C)(C)C [Example 169] |  | > 500 nM | 
29 | CC(C)[C@H](NC(=O)N[C@H](C(=O)N1C[C@H]2[C@@H]([C@H]1C(=O)NC(CC(F)F)C(=O)NCCc1ccc(C(=O)O)cc1)C2(C)C)C(C)(C)C)C(=O)OC(C)(C)C (some centres unmarked) [Example 129] |  | 100 to 500 nM | 
30 | CC(C)[C@H](NC(=O)N[C@H](C(=O)N1C[C@H]2[C@@H]([C@H]1C(=O)NC(CC(F)F)C(=O)O)C2(C)C)C(C)(C)C)C(=O)OC(C)(C)C (some centres unmarked) [Example 159] |  | > 500 nM | 
31 | CC(C)[C@H](NC(=O)N[C@H](C(=O)N1C[C@H]2[C@@H]([C@H]1C(=O)N[C@@H](CC(F)F)C(=O)NCCc1ccc(C(=O)N(C)C)cc1)C2(C)C)C(C)(C)C)C(=O)OC(C)(C)C [Example 141] |  | 100 to 500 nM | 
32 | CC(C)[C@H](NC(=O)N[C@H](C(=O)N1C[C@H]2[C@@H]([C@H]1C(=O)N[C@@H](CC(F)F)C(N)=O)C2(C)C)C(C)(C)C)C(=O)O [Example 157] |  | > 500 nM | 
33 | CC(Cc1ccc(Cl)cc1)NC(=O)[C@H](CC(F)F)NC(=O)[C@@H]1[C@@H]2[C@H](CN1C(=O)[C@@H](NC(=O)N[C@H](CN(C)S(C)(=O)=O)C(C)(C)C)C(C)(C)C)C2(C)C (some centres unmarked) [Example 296] | 100 to 500 nM |  | 
34 | CN(C[C@@H](NC(=O)N[C@H](C(=O)N1C[C@H]2[C@@H]([C@H]1C(=O)N[C@@H](CC(F)F)C(=O)NC1CCCc3ccccc31)C2(C)C)C(C)(C)C)C(C)(C)C)S(C)(=O)=O (some centres unmarked) [Example 224] | > 500 nM |  | 
35 | CN(C[C@@H](NC(=O)N[C@H](C(=O)N1C[C@H]2[C@@H]([C@H]1C(=O)N[C@@H](CC(F)F)C(=O)NCCC(c1ccccc1)c1ccccc1)C2(C)C)C(C)(C)C)C(C)(C)C)S(C)(=O)=O [Example 229] | > 500 nM |  | 
36 | CN(CCc1ccccn1)C(=O)[C@H](CC(F)F)NC(=O)[C@@H]1[C@@H]2[C@H](CN1C(=O)[C@@H](NC(=O)N[C@H](CN(C)S(C)(=O)=O)C(C)(C)C)C(C)(C)C)C2(C)C [Example 305] | > 500 nM |  | 
37 | CC(C)[C@H](NC(=O)N[C@H](C(=O)N1C[C@@H]2OC(C)(C)C[C@@H]2[C@H]1C(=O)N[C@@H](CC(F)F)C(=O)NCCc1ccccc1)C1CCCCC1)C(=O)OC(C)(C)C [Example 152] |  | > 500 nM | 
38 | CN(C[C@@H](NC(=O)N[C@H](C(=O)N1C[C@H]2[C@@H]([C@H]1C(=O)N[C@@H](CC(F)F)C(=O)NS(=O)(=O)c1ccccc1)C2(C)C)C(C)(C)C)C(C)(C)C)S(C)(=O)=O [Example 257] | > 500 nM |  | 
39 | COC(=O)c1ccc(CCNC(=O)[C@H](CC(F)F)NC(=O)[C@@H]2[C@@H]3[C@H](CN2C(=O)[C@@H](NC(=O)N[C@H](CNS(=O)(=O)c2ccccc2)C(C)C)C(C)(C)C)C3(C)C)cc1 [Example 130] |  | 100 to 500 nM | 
40 | CC(C)[C@H](NC(=O)N[C@H](C(=O)N1C[C@H]2[C@@H]([C@H]1C(=O)N[C@@H](CC(F)F)C(=O)NCCc1ccc(C(N)=O)cc1)C2(C)C)C(C)(C)C)C(N)=O [Example 144] |  | 100 to 500 nM | 
41 | CN(C[C@@H](NC(=O)N[C@H](C(=O)N1C[C@H]2[C@@H]([C@H]1C(=O)N[C@@H](CC(F)F)C(=O)N[C@H]1C[C@@H]1c1ccccc1)C2(C)C)C(C)(C)C)C(C)(C)C)S(C)(=O)=O [Example 293] | > 500 nM |  | 
